Some results are limits rather than exact numbers.

This assay addresses T1, BRD4 BD1 (Homo sapiens, UniProt O60885).
T1 construct: Protein BRD4 BD1 used in the assay was purchased from Active Motif (cat. 31380); purchased Active Motif 31380
Kind of assay: HTRF in vitro enzyme activity assay, inhibition of BRD4 BD1 binding to acetylated H4 peptide. The note with it: IC50 values of the compounds against BRD4 BD1 binding; class symbols A/B/C. On the procedure: Effect Examples: In Vitro Enzyme Activity Assay
Half inhibitory activity (IC50) of the compounds of the invention against the bromodomain protein BRD4 BD1 was determined in the present Examples.
The compounds of the invention were tested for inhibitory activity against BRD4 BD1 with Homogeneous Time-Resolved Fluorescence (HTRF).
2. Reagents, Consumable Materials and Instruments:
Protein BRD4 BD1 used in the assay was purchased from Active Motif (cat. 31380); streptavidin XL-665 (#610SAXLA) and EPIgeneous Binding Domain Kit A (#62BDAPEG) were both purchased from Cisbio Bioassays; [Lys(5,8,12,16)Ac] H4(1-21)-biotin (#64989), [Lys(5,8,12,16)Ac]H4(1-25) were available from Anaspec; OTX015 and ABBV-075 were purchased from Selleckchem Co. The 384-well ProxiPlate (#6008280) was purchased from Perkinelmer Co. The Laboratory microplate reader (Envision 2104) was available from PerkinElmer Co. The water used in the assay was Millipore-Q pure water.
3. Formulation of the Compound
10 mM DMSO stock solution of the test compound was diluted to 1 mM in DMSO, and then diluted 10-fold in Binding Domain dilution buffer (purchased from Cisbio Bioassays) for use (DMSO concentration in the final system was 0.1%), including 5 concentrations in 1:5 gradient.
4. Assay Protocol: 1 Batch, 2 Repeats
1) 5 μL of test compound was transferred to 45 μL Binding Domain dilution buffer.
2) 2 μL of 1× compound (4 μL Binding Domain dilution buffer: positive control; 6 μL enzyme buffer (purchased from Cisbio Bioassays): negative control) was transferred to a reaction plate.
3) 4 μL of 5×BRD 4(1) was added to the reaction plate (30 nM in the final system).
4) 4 μL of 5×[Lys(5,8,12,16)Ac] H4(1-21)-biotin was added to the reaction plate, and the plate was covered with a film and incubated at 37° C. for 30 min.
5) A detection mixture of SA-XL665 (2×) and anti-H3K9me0-Eu(K) (2×) was prepared in detection buffer (purchased from Cisbio Bioassays).
6) 10 μL of detection mixture (2×) was added to each well, incubated at RT for 3 h. The mp value was read by microplate reader Envision with the following parameters: […]
A general note: TR-FRET usually uses a lanthanide donor and a delayed reading to cut background.
Molecule `CC1C(=O)N(C)c2ccc(N3C(=O)c4ccccc4C3c3ccccc3)nc2N1C1CC1` (single isomer, unassigned) [Example A11-P3, 4-cyclopropyl-1,3-dimethyl-6-(1-oxo-3-phenylisoindolin-2-yl)-3,4-dihydropyrido[2,3-b]pyrazin-2(1H)-one] showed an IC50 of at most 10 nM.

Consider `CC1C(=O)N(C)c2ccc(-n3c(=O)c4ccccc4n3-c3ccc(Cl)cc3)nc2N1C1CC1` (single isomer, unassigned) [Example A12-P1, 6-(1-(4-chlorophenyl)-3-oxo-1,3-dihydro-2H-indazol-2-yl)-4-cyclopropyl-1,3-dimethyl-3,4-dihydropyrido[2,3-b]pyrazin-2(1H)-one], for which the IC50 was at most 10 nM.

`CC1C(=O)N(C)c2cnc(N3C(=O)c4ccccc4C3c3ccc(F)nc3)nc2N1C1CC1` (single isomer, unassigned) [Example A101-P3, 8-cyclopropyl-2-(1-(6-fluoropyridin-3-yl)-3-oxoisoindol-2-yl)-5,7-dimethyl-7,8-dihydropteridin-6(5H)-one] came in with an IC50 of at most 10 nM.

Molecule `Cc1ccc(C2CCC(=O)N2c2ccc3c(n2)N(C2CC2)C(C)C(=O)N3C)cc1` (single isomer, unassigned) [Example A8-P3, 4-cyclopropyl-6-(2-(4-methylphenyl)-5-oxopyrrolidin-1-yl)-1,3-dimethyl-3,4-dihydropyrido[2,3-b]pyrazin-2(1H)-one] returned an IC50 of at most 10 nM.

As to `C[C@H]1Oc2nc(N3C(=O)c4c(cccc4[S+](C)[O-])C3c3cccnc3)ccc2N(C)C1=O` (single isomer, unassigned) [Example A127-P1], the IC50 was at most 10 nM.

As to `[2H]C([2H])([2H])N1C(=O)C(C)N(C2CC2)c2nc(N3C(=O)c4ccccc4C3c3cccnc3)ccc21` (stereo not shown) [Example A43-P4, 4-cyclopropyl-3-methyl-1-(trideuteromethyl)-6-(1-oxo-3-(pyridin-3-yl)isoindolin-2-yl)-3,4-dihydropyrido [2,3-B]pyrazin-2(1H)-one], the IC50 is at most 10 nM.

The molecule `CC1C(=O)N(C)c2ccc(N3C(=O)c4c(cccc4[S+](C)[O-])C3c3cccnc3)nc2N1C1CC1` (single isomer, unassigned) [Example A60-P1] gave an IC50 of at most 10 nM.

For `CC1C(=O)N(C)c2ccc(N3C(=O)CCC3c3ccccc3)nc2N1C1CCCC1` (single isomer, unassigned) [Example A2-P2-2, 4-cyclopentyl-1,3-dimethyl-6-(2-oxo-5-phenylpyrrolidin-1-yl)-3,4-dihydropyrido[2,3-b]pyrazin-2(1H)-one], the IC50 was at most 10 nM.

In the case of `C[C@@H]1C(=O)N(C)c2cnc(N3C(=O)c4c(cccc4S(C)(=O)=O)C3c3cccnc3)nc2N1C` (stereo partly drawn) [Example A103-P1, (7R)-5,7,8-trimethyl-2-(4-(methylsulfonyl)-3-oxo-1-(pyridin-3-yl)isoindolin-2-yl)-7,8-dihydropteridin-6(5H)-one], the half-inhibitory concentration (IC50) was at most 10 nM.

Turning to `Cc1ccc(-n2c3ccccc3c(=O)n2-c2ccc3c(n2)N(C2CC2)C(C)C(=O)N3C)cn1` (single isomer, unassigned) [Example A50-P4, 6-(1-(6-methyl-pyridin-3-yl)-3-oxo-1,3-dihydro-2H-indazol-2-yl)-4-cyclopropyl-1-methyl-3-methyl-3,4-dihydropyridine [2,3-b]pyrazin-2(1H)-one], the IC50 was at most 10 nM.

Regarding `C[C@H]1Oc2cc(N3C(=O)c4ccccc4C3c3cccnc3)ncc2N(C)C1=O` (single isomer, unassigned) [Example A123-P2], the IC50 lay within 100 to 1000 nM.

The molecule `CCN1C(=O)C(C)N(C2CCCC2)c2nc(N3C(=O)c4ccccc4C3c3ccc(F)cc3)ccc21` (racemic) [Example A24, 4-cyclopentyl-1-ethyl-6-(1-(4-fluorophenyl)-3-oxoisoindolin-2-yl)-3-methyl-3,4-dihydropyrido[2,3-b]pyrazin-2(1H)-one] yielded an IC50 of 10 to 100 nM.

`CC(C)N1c2nc(N3C(=O)c4ccccc4C3c3cccnc3)ccc2N(C)C(=O)C1C` (stereo not shown) [Example A57-P3] gave an IC50 of at most 10 nM.

Take `CC1C(=O)N(C)c2cnc(N3C(=O)c4ccccc4C3c3ccc(F)nc3)nc2N1C1CC1` (stereo not shown) [A99-P3/P4, 8-cyclopropyl-2-(1-(6-fluoropyridin-3-yl)-3-oxoisoindol-2-yl)-5,7-dimethyl-7,8-dihydropteridin-6(5H)-one]: the concentration for half-maximal inhibition (IC50) was at most 10 nM.

`CC1C(=O)N(C)c2ccc(N3C(=O)c4ccccc4C3Cc3ccccc3)nc2N1C1CC1` (racemic) [Example A37, 4-cyclopropyl-6-(1-benzyl-3-oxoisoindolin-2-yl)-1,3-dimethyl-3,4-dihydropyrido [2,3-b]pyrazin-2(1H)-one] showed an IC50 of 100 to 1000 nM.

`C[C@H]1Oc2cc(N3C(=O)c4cc(F)ccc4C3c3cccnc3)ncc2N(C)C1=O` (stereo partly drawn) [Example A117, (2R)-7-(5-fluoro-3-oxo-1-(pyridin-3-yl)isoindolin-2-yl)-2,4-dimethyl-2H-pyrido[4,3-b][1,4]oxazin-3(4H)-one] had an IC50 of 100 to 1000 nM.

Regarding `CC1C(=O)N(C)c2ccc(N3C(=O)CCC3c3ccccc3)nc2N1C1CC1` (single isomer, unassigned) [Example A1-P2-2, 4-cyclopropyl-1,3-dimethyl-6-(2-oxo-5-phenyl-pyrrolidin-1-yl)-3,4-dihydropyrido[2,3-b]pyrazin-2(1H)-one], the IC50 was at most 10 nM.

In turn, `CC1C(=O)N(C)c2cnc(N3C(=O)c4ccccc4C3c3cccnc3)cc2N1C1CC1` (single isomer, unassigned) [Example A70-P3, 1-cyclopropyl-2,4-dimethyl-7-(1-oxo-3-(pyridin-3-yl)isoindolin-2-yl)-1,4-dihydropyrido[3,4-b]pyrazin-3(2H)-one] showed an IC50 of at most 10 nM.

`CC1Oc2cc(N3C(=O)c4ccccc4C3c3cccnc3)cc(F)c2N(C)C1=O` (single isomer, unassigned) [Example A107-P3, 1-methyl-3-methyl-6-(1-oxo-3-(pyridin-3-yl)isoindolin-2-yl)-8-fluoro-1H-benzo[2,3-B][1,4]oxazin-2(3H)-one] gave an IC50 of 10 to 100 nM.

The molecule `CNC(=O)c1cccc2c1C(=O)N(c1ccc3c(n1)N(C1CC1)C(C)C(=O)N3C)C2c1cccnc1` (single isomer, unassigned) [Example A83-P3] displayed an IC50 of at most 10 nM.

Take `CC[S+]([O-])c1cccc2c1C(=O)N(c1ccc3c(n1)N(C1CC1)C(C)C(=O)N3C)C2c1cccnc1` (stereo not shown) [Example A73, 4-cyclopropyl-6-(4-(ethylsulfinyl)-3-oxo-1-(pyridin-3-yl)isoindolin-2-yl)-1,3-dimethyl-3,4-dihydropyrido[2,3-b]pyrazin-2(1H)-one]: the IC50 is at most 10 nM.

`C[C@H]1Oc2nc(N3C(=O)c4cc(F)ccc4C3c3cccnc3)ncc2N(C)C1=O` (stereo partly drawn) [Example A116-P3, (7R)-2-(5-fluoro-3-oxo-1-(pyridin-3-yl)isoindolin-2-yl)-5,7-dimethyl-5H-pyrimido[4,5-B][1,4]oxazin-6(7H)-one] registered an IC50 of 100 to 1000 nM.

In the case of `CC1C(=O)N(CC(F)(F)F)c2ccc(N3C(=O)c4ccccc4C3c3cccnc3)nc2N1C1CC1` (stereo not shown) [Example A46-P4, 4-cyclopropyl-1-(2,2,2-trifluoroethyl)-3-methyl-6-(1-oxo-3-(pyridin-3-yl)isoindolin-2-yl)-3,4-dihydropyrido [2,3-b]pyrazin-2(1H)-one], the IC50 was at most 10 nM.

For the molecule `CCSc1cccc2c1C(=O)N(c1ccc3c(n1)N(C1CC1)C(C)C(=O)N3C)C2c1cccnc1` (single isomer, unassigned) [Example A66-P3], the IC50 is at most 10 nM.

`C[C@@H]1C(=O)N(C)c2ccc(N3C(=O)c4c(C(=O)NC5CC5)cccc4C3c3ccc(F)cc3)nc2N1C` (stereo partly drawn) [Example A86-P3, N-cyclopropyl-1-(4-fluorophenyl)-3-oxo-2-((R)-1,3,4-trimethyl-2-oxo-1,2,3,4-tetrahydropyrido[2,3-b]pyrazin-6-yl)isoindoline-4-carboxamide] yielded an IC50 of at most 10 nM.

In turn, `CCN1C(=O)C(C)N(C2CCCC2)c2nc(-n3c(=O)c4ccccc4n3-c3ccc(Cl)cc3)ccc21` (racemic) [Example A28, 6-(1-(4-chlorophenyl)-3-oxo-1,3-dihydro-2H-indazol-2-yl)-4-cyclopentyl-1-ethyl-3-methyl-3,4-dihydropyridine [2,3-b]pyrazin-2(1H)-one] returned an IC50 of 10 to 100 nM.

On to `CSc1cccc2c1C(=O)N(c1ccc3c(n1)N(C)[C@H](C)C(=O)N3C)C2c1cccnc1` (mixture of isomers) [Example A61, (3R)-1,3,4-trimethyl-6-(4-(methylthio)-3-oxo-1-(pyridin-3-yl)isoindolin-2-yl)-3,4-dihydropyrido[2,3-b]pyrazin-2(1H)-one], for which the IC50 was at most 10 nM.

In the case of `C[C@@H]1C(=O)N(C)c2cnc(N3C(=O)c4cc(F)ccc4C3c3cccnc3)nc2N1C` (single isomer, unassigned) [Example A97-P1], the IC50 was at most 10 nM.

As usually defined, the IC50 is the point on the concentration scale where inhibition reaches its midpoint. A high value points to a need for much substance.

The record behind these values is patent publication US20210261539A1, “COMPOUND HAVING BET INHIBITORY ACTIVITY AND PREPARATION METHOD AND USE THEREFOR” (Shanghai Haihe Pharmaceutical Co., Ltd., priority 2018, published 2021).
